According to ChEMBL document CHEMBL2021919, “Computational analysis of structure-based interactions and ligand properties can predict efflux effects on antibiotics” (2012):
Values after ≈ are worked out from the molar mass of the structure shown.

What was measured:
[1] = tested on: Salmonella typhimurium; assay: Ratio of MIC for wild type Salmonella typhimurium SH5014 to MIC for Salmonella typhimurium SH7616 harboring missense mutation in acrA/acrB gene by two-fold serial dilution method; format: functional, Salmonella enterica subsp. enterica serovar Typhimurium
[2] = tested on: Escherichia coli; assay: Antimicrobial activity against wild type Escherichia coli expressing AcrAB-TolC efflux pump; format: functional
[3] = tested on: Escherichia coli; assay: Ratio of MIC for wild type Escherichia coli JC7623 to MIC for acrAB-deficient Escherichia coli JZM120; format: functional
[4] = tested on: Escherichia coli; assay: Ratio of MIC for wild type Escherichia coli TG1 to MIC for acrB-deficient Escherichia coli KAM3 by two-fold serial dilution method; format: functional
[5] = tested on: Escherichia coli; assay: Ratio of MIC for wild type Escherichia coli HS414 to MIC for acrB-deficient Escherichia coli HS832 by agar dilution method; format: functional
[6] = tested on: Escherichia coli; assay: Ratio of MIC for wild type Escherichia coli ECM1194 to MIC for acrAB-deficient Escherichia coli ECM1694; format: functional

SMILES	Ratio [1]	MIC [2] [µg/mL]	Ratio [3]	Ratio [4]	Ratio [5]	Ratio [6]
CO/N=C(\C(=O)N[C@@H]1C(=O)N2C(C(=O)[O-])=C(C[N+]3(C)CCCC3)CS[C@H]12)c1csc(N)n1	1	0.0075 (≈ 0.0156 µM)	1			
CC1(C)S[C@@H]2[C@H](NC(=O)CCC[C@@H](N)C(=O)O)C(=O)N2[C@H]1C(=O)O [ADICILLIN]	1	8 (≈ 22.3 µM)				
CC1(C)S[C@@H]2[C@H](/N=C/N3CCCCCC3)C(=O)N2[C@H]1C(=O)O [AMDINOCILLIN]		0.5 (≈ 1.54 µM)	2			
CC1(C)S[C@@H]2[C@H](NC(=O)[C@H](N)c3ccc(O)cc3)C(=O)N2[C@H]1C(=O)O [AMOXICILLIN]		4 (≈ 10.9 µM)	1			
CC1(C)S[C@@H]2[C@H](NC(=O)[C@H](NC(=O)N3CCNC3=O)c3ccccc3)C(=O)N2[C@H]1C(=O)O [AZLOCILLIN]		16 (≈ 34.7 µM)	4			
C[C@H]1[C@H](NC(=O)/C(=N\OC(C)(C)C(=O)O)c2csc(N)n2)C(=O)N1S(=O)(=O)O [AZTREONAM]		0.05 (≈ 0.115 µM)		1		
CC1(C)S[C@@H]2[C@H](NC(=O)C(C(=O)O)c3ccccc3)C(=O)N2[C@H]1C(=O)O (stereo partly specified) [CARBENICILLIN]	4	1.56 (≈ 4.12 µM)	1	1		
Cn1nnnc1SCC1=C(C(=O)O)N2C(=O)[C@@H](NC(=O)[C@H](O)c3ccccc3)[C@H]2SC1 [CEFAMANDOLE]		4 (≈ 8.65 µM)	4	4		
Cc1nnc(SCC2=C(C(=O)O)N3C(=O)[C@@H](NC(=O)Cn4cnnn4)[C@H]3SC2)s1 [CEFAZOLIN]	1	0.39 (≈ 0.858 µM)	1			
CO[C@@]1(NC(=O)CSCC#N)C(=O)N2C(C(=O)O)=C(CSc3nnnn3C)CS[C@@H]21 [CEFMETAZOLE]	1	0.05 (≈ 0.106 µM)	1	2		
CCN1CCN(C(=O)N[C@@H](C(=O)N[C@@H]2C(=O)N3C(C(=O)O)=C(CSc4nnnn4C)CS[C@H]23)c2ccc(O)cc2)C(=O)C1=O [CEFOPERAZONE]		0.03 (≈ 0.0465 µM)	2			
CO/N=C(\C(=O)N[C@@H]1C(=O)N2C(C(=O)O)=C(COC(C)=O)CS[C@H]12)c1csc(N)n1 [CEFOTAXIME]	4	0.12 (≈ 0.263 µM)		2		
CO[C@@]1(NC(=O)Cc2cccs2)C(=O)N2C(C(=O)O)=C(COC(N)=O)CS[C@@H]21 [CEFOXITIN]	4	4 (≈ 9.36 µM)	4			
CO/N=C(\C(=O)N[C@@H]1C(=O)N2C(C(=O)[O-])=C(C[n+]3cccc4c3CCC4)CS[C@H]12)c1csc(N)n1 [CEFPIROME]		0.015 (≈ 0.0291 µM)	1			
NC(=O)c1cc[n+](CC2=C(C(=O)[O-])N3C(=O)[C@@H](NC(=O)[C@@H](c4ccccc4)S(=O)(=O)O)[C@H]3SC2)cc1 [CEFSULODIN]	1	16 (≈ 30 µM)	1			
CC(C)(O/N=C(\C(=O)N[C@@H]1C(=O)N2C(C(=O)[O-])=C(C[n+]3ccccc3)CS[C@H]12)c1csc(N)n1)C(=O)O [CEFTAZIDIME]		0.12 (≈ 0.22 µM)	1			
CO/N=C(\C(=O)N[C@@H]1C(=O)N2C(C(=O)O)=C(CSc3nc(=O)c(O)nn3C)CS[C@H]12)c1csc(N)n1 [CEFTRIAXONE]	2	0.015 (≈ 0.027 µM)	1			
CO/N=C(\C(=O)N[C@@H]1C(=O)N2C(C(=O)O)=C(COC(N)=O)CS[C@H]12)c1ccco1 [CEFUROXIME]		1.56 (≈ 3.68 µM)	16	8		
O=C(Cc1cccs1)N[C@@H]1C(=O)N2C(C(=O)[O-])=C(C[n+]3ccccc3)CS[C@H]12 [CEPHALORIDINE]	2	2 (≈ 4.81 µM)	2			
CC(=O)OCC1=C(C(=O)O)N2C(=O)[C@@H](NC(=O)CCC[C@@H](N)C(=O)O)[C@H]2SC1 [CEPHALOSPORIN C]	1	16 (≈ 38.5 µM)				
CC(=O)OCC1=C(C(=O)O)N2C(=O)[C@@H](NC(=O)Cc3cccs3)[C@H]2SC1 [CEPHALOTHIN]		2 (≈ 5.04 µM)				

SMILES	Ratio [1]	MIC [2] [µg/mL]	Ratio [3]	Ratio [4]	Ratio [5]	Ratio [6]
O=C(N[C@H](CO)[C@H](O)c1ccc([N+](=O)[O-])cc1)C(Cl)Cl [CHLORAMPHENICOL]		4 (≈ 12.4 µM)			8	4
Cc1onc(-c2ccccc2Cl)c1C(=O)N[C@@H]1C(=O)N2[C@@H]1SC(C)(C)[C@@H]2C(=O)O [CLOXACILLIN]	256	256 (≈ 587 µM)	128	128		
C[n+]1c2cc(N)ccc2cc2ccc(N)cc21.[Cl-] [EUFLAVINE]		400			128	
C[C@@H](O)[C@H]1C(=O)N2C(C(=O)O)=C([C@H]3CCCO3)S[C@H]12 [FAROPENEM]		0.39 (≈ 1.37 µM)		4		
CS(=O)(=O)c1ccc([C@@H](O)[C@@H](CF)NC(=O)C(Cl)Cl)cc1 [FLORFENICOL]		6.25 (≈ 17.4 µM)			8	
CC[n+]1c(-c2ccccc2)c2cc(N)ccc2c2ccc(N)cc21.[Br-] [HOMIDIUM BROMIDE]		800			256	
CN(Cc1cnc2nc(N)nc(N)c2n1)c1ccc(C(=O)N[C@@H](CCC(=O)O)C(=O)O)cc1 [METHOTREXATE]		640 (≈ 1410 µM)			8	
CC1(C)S[C@@H]2[C@H](NC(=O)[C@H](NC(=O)N3CCN(S(C)(=O)=O)C3=O)c3ccccc3)C(=O)N2[C@H]1C(=O)O [MEZLOCILLIN]		1 (≈ 1.85 µM)	32			
CO[C@@]1(NC(=O)C(C(=O)[O-])c2ccc(O)cc2)C(=O)N2C(C(=O)[O-])=C(CSc3nnnn3C)CO[C@@H]21.[Na+].[Na+] (stereo partly specified) [MOXALACTAM DISODIUM]	1	0.12				
CCOc1ccc2ccccc2c1C(=O)N[C@@H]1C(=O)N2[C@@H]1SC(C)(C)[C@@H]2C(=O)O [NAFCILLIN]		200 (≈ 483 µM)		128		
CCn1cc(C(=O)O)c(=O)c2ccc(C)nc21 [NALIDIXIC ACID]		3.12 (≈ 13.5 µM)			2	
CCn1cc(C(=O)O)c(=O)c2cc(F)c(N3CCNCC3)cc21 [NORFLOXACIN]		0.004 (≈ 0.0125 µM)			1	
CO[C@@H]1[C@@H](OC(N)=O)[C@@H](O)[C@H](Oc2ccc3c(O)c(NC(=O)c4ccc(O)c(CC=C(C)C)c4)c(=O)oc3c2C)OC1(C)C [NOVOBIOCIN]		32 (≈ 52.2 µM)	32	64	64	
Cc1onc(-c2ccccc2)c1C(=O)N[C@@H]1C(=O)N2[C@@H]1SC(C)(C)[C@@H]2C(=O)O [OXACILLIN]		1020 (≈ 2550 µM)	512	256		
CC1(C)S[C@@H]2[C@H](NC(=O)Cc3ccccc3)C(=O)N2[C@H]1C(=O)O [PENICILLIN G]	32	8 (≈ 23.9 µM)	2			
CCN1CCN(C(=O)N[C@@H](C(=O)N[C@@H]2C(=O)N3[C@@H]2SC(C)(C)[C@@H]3C(=O)O)c2ccccc2)C(=O)C1=O [PIPERACILLIN]		4 (≈ 7.73 µM)				
Nc1ccc2cc3ccc(N)cc3nc2c1 [PROFLAVINE]		100 (≈ 478 µM)			8	
CC1(C)S[C@@H]2[C@H](NC(=O)C(c3ccccc3)S(=O)(=O)O)C(=O)N2[C@H]1C(=O)O (stereo partly specified) [SULBENICILLIN]	4	8 (≈ 19.3 µM)		1		
CC(=O)NS(=O)(=O)c1ccc(N)cc1 [SULFACETAMIDE]		2000 (≈ 9340 µM)			1	
CN(C)[C@@H]1C(O)=C(C(N)=O)C(=O)[C@@]2(O)C(O)=C3C(=O)c4c(O)cccc4[C@@](C)(O)[C@H]3C[C@@H]12 [TETRACYCLINE]		1.25 (≈ 2.81 µM)			8	
